Measurements: US11566007B2, “Ras inhibitors” (Revolution Medicines, Inc., priority 2019, dated 2023)
pIC50: −log10 of the molar value. Where “and” joins values, the source holds several entries; their conditions need not be identical. Equal values may be shown once.

Legend:
Assay type in all cases: biochemical
NRAS Q61R = NRAS Q61R (Homo sapiens (Human), UniProt P01111+P62937, Q61R); assay: Ras-Raf (BRAF RBD) disruption / FRET / MOA assay, NRAS Q61R; details: NRAS Q61R; Ras-Raf disruption/FRET/MOA assay; read-out: IC50* NRAS Q61R FRET data
Sequence of NRAS Q61R (P01111 whole entry Q61R): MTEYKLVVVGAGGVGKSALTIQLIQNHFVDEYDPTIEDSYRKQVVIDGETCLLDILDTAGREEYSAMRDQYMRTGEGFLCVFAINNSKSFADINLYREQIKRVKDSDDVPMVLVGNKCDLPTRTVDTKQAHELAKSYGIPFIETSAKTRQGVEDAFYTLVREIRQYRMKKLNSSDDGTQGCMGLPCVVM
Sequence of NRAS Q61R (P62937 whole entry): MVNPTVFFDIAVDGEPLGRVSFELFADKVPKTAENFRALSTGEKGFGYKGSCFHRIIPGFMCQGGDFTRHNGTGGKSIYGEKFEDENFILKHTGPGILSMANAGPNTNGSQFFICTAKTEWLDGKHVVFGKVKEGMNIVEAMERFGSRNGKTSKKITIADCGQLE
Summary of the method: (§1)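 Compounds were tested as a 10-point 3-fold dilution series from 30 μM final for their ability to drive ternary complex formation between nucleotide-loaded Ras and cyclophilin A, displacing the BRAF RBD. After 3 h at 25° C., anti-His Eu-W1024 (10 nM) and anti-GST allophycocyanin (50 nM) were added for 1.5 h. A TR-FRET ratio decrease versus DMSO gave IC50.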

NRAS WT = NRAS WT (Homo sapiens (Human), UniProt P01111+P62937); assay: Ras-Raf (BRAF RBD) disruption / FRET / MOA assay, NRAS WT; details: read-out: IC50* NRAS WT FRET data
Sequence of NRAS WT (P01111 whole entry): as the sequence (P01111 whole entry Q61R) above, with R61Q counted along it
Sequence of NRAS WT (P62937 whole entry): as the sequence (P62937 whole entry) above
Summary of the method: as §1

K-Ras G13C = K-Ras G13C (Homo sapiens (Human), UniProt P01116+P62937, G13C); assay: Ras-Raf (BRAF RBD) disruption / FRET / MOA assay, KRAS G13C; details: KRAS G13C; Ras-Raf disruption/FRET/MOA assay; read-out: IC50* KRAS G13C FRET data
Sequence of K-Ras G13C (P01116-2 other isoform, or with tags, fused parts or gaps G13C): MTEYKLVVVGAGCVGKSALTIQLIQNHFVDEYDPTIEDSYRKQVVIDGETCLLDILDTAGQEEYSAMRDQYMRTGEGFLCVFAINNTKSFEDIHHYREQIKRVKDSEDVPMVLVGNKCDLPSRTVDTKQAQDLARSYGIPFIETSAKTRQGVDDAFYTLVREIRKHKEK
Sequence of K-Ras G13C (P62937 whole entry): as the sequence (P62937 whole entry) above
Summary of the method: (§2)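 TR-FRET read-out: a drop in ratio relative to DMSO wells marks disruption of the Ras:RAF complex, reported as IC50. Compounds (3-fold series, 10 points, top 30 μM final) incubated 3 h at 25° C before Eu-anti-His 10 nM and APC-anti-GST 50 nM, 1.5 h more.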

NRAS G12C = NRAS G12C (Homo sapiens (Human), UniProt P01111+P62937, G12C); assay: Ras-Raf (BRAF RBD) disruption / FRET / MOA assay, NRAS G12C; details: read-out: IC50* NRAS G12C FRET data
Sequence of NRAS G12C (P01111 whole entry G12C): as the sequence (P01111 whole entry Q61R) above, with G12C, R61Q counted along it
Sequence of NRAS G12C (P62937 whole entry): as the sequence (P62937 whole entry) above
Summary of the method: as §2

KRAS G13D = KRAS G13D (Homo sapiens (Human), UniProt P01116+P62937, G13D); assay: Ras-Raf (BRAF RBD) disruption / FRET / MOA assay, KRAS G13D; details: read-out: IC50* KRAS G13D FRET data
Sequence of KRAS G13D (P01116-2 other isoform, or with tags, fused parts or gaps G13D): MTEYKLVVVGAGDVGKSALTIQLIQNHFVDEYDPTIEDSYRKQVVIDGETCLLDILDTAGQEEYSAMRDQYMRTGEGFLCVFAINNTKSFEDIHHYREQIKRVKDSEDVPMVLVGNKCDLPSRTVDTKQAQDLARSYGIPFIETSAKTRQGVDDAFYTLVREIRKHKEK
Sequence of KRAS G13D (P62937 whole entry): as the sequence (P62937 whole entry) above
Summary of the method: as §2

KRAS WT = KRAS WT (Homo sapiens (Human), UniProt P01116+P62937); assay: Ras-Raf (BRAF RBD) disruption / FRET / MOA assay, KRAS WT; details: read-out: IC50* KRAS WT FRET data
Sequence of KRAS WT (P01116-2 other isoform, or with tags, fused parts or gaps): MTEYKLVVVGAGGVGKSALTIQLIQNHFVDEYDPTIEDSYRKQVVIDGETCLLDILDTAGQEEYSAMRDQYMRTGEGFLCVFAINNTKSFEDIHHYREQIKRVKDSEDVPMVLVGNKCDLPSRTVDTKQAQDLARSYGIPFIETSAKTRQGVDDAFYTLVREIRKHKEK
Sequence of KRAS WT (P62937 whole entry): as the sequence (P62937 whole entry) above
Summary of the method: as §2

K-Ras G12C = K-Ras G12C (Homo sapiens (Human), UniProt P01116+P62937, G12C); assay: Ras-Raf (BRAF RBD) disruption / FRET / MOA assay, KRAS G12C; details: KRAS G12C; Ras-Raf disruption/FRET/MOA assay; read-out: IC50* KRAS G12C FRET data
Sequence of K-Ras G12C (P01116-2 other isoform, or with tags, fused parts or gaps G12C): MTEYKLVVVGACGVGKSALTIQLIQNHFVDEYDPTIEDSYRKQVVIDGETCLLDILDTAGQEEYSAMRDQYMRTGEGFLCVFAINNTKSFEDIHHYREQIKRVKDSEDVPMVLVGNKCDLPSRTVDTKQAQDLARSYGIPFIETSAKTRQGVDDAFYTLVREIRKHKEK
Sequence of K-Ras G12C (P62937 whole entry): as the sequence (P62937 whole entry) above
Summary of the method: as §2

Row | Structure (SMILES) | pIC50 (NRAS Q61R) | pIC50 (NRAS WT) | pIC50 (K-Ras G13C) | pIC50 (NRAS G12C) | pIC50 (KRAS G13D) | pIC50 (KRAS WT) | pIC50 (K-Ras G12C)
1 | CCn1c(-c2cccnc2[C@H](C)OC)c2c3cc(ccc31)-c1csc(n1)C[C@H](NC(=O)[C@H](C(C)C)N(C)C(=O)N(C)C1CN(C(=O)/C=C/[C@@H]3CCCN3C)C1)C(=O)N1CCC[C@H](N1)C(=O)OCC(C)(C)C2 (atropisomer, axis not shown) [Example A730] | 5.00 to 6.00 | 6.00 to 7.00 | 6.00 to 7.00 | 7.00 to 8.00 | 6.00 to 7.00 | 6.00 to 7.00 | 7.00 to 8.00
2 | CC#CC(=O)N1CC(N(C)C(=O)N(C)[C@H](C(=O)N[C@H]2Cc3nc(cs3)-c3ccc4c(c3)c(c(-c3cccnc3[C@H](C)OC)n4CC)CC(C)(C)COC(=O)[C@@H]3CCCN(N3)C2=O)C(C)C)C1 (atropisomer, axis not shown) [Example A731] | 5.00 to 6.00 | 6.00 to 7.00 | 6.00 to 7.00 | 6.00 to 7.00 | 5.00 to 6.00 | 6.00 to 7.00 | 6.00 to 7.00
3 | C=CS(=O)(=O)N1CCC(C(=O)N(C)[C@H](C(=O)N[C@H]2Cc3nc(cs3)-c3ccc4c(c3)c(c(-c3cncnc3)n4CC)CC(C)(C)COC(=O)[C@@H]3CCCN(N3)C2=O)C(C)C)C1 (single isomer, unassigned) [Example A170] | < 5.00 | < 5.00 | 5.00 to 6.00 | 5.00 to 6.00 | < 5.00 | < 5.00 | 5.00 to 6.00
4 | CCn1c(-c2cccnc2[C@H](C)OC)c2c3cc(ccc31)N1CCC[C@@H](C[C@H](NC(=O)[C@H](C(C)C)N(C)C(=O)[C@H]3CCN(C(=O)C#CC(C)(C)N4CCC4)C3)C(=O)N3CCC[C@H](N3)C(=O)OCC(C)(C)C2)C1 (atropisomer, axis not shown) [Example A617] | < 5.00 | < 5.00 | < 5.00 | 7.00 to 8.00 | < 5.00 | < 5.00 | 7.00 to 8.00
5 | C=CC(=O)N1CC[C@H](C(=O)N(C)[C@H](C(=O)N[C@H]2Cc3nc(ns3)-c3ccc4c(c3)c(c(-c3cccnc3[C@H](C)OC)n4CC)CC(C)(C)COC(=O)[C@@H]3CCCN(N3)C2=O)C(C)C)C1 (atropisomer, axis not shown) [Example A202] | < 5.00 | 5.00 to 6.00 | < 5.00 | 5.00 to 6.00 | < 5.00 | < 5.00 | 5.00 to 6.00
6 | C=CC(=O)N1CC[C@H](C(=O)N(C)[C@H](C(=O)N[C@H]2Cc3cc(O)cc(c3)-c3ccc4c(c3)c(c(-c3cccnc3[C@@H]3CCCO3)n4CC)CC(C)(C)COC(=O)[C@@H]3CCCN(N3)C2=O)C(C)C)C1 (atropisomer, axis not shown) [Example A281] | 6.00 to 7.00 | 6.00 to 7.00 | 7.00 to 8.00 and 6.00 to 7.00 | 7.00 to 8.00 and 6.00 to 7.00 | 6.00 to 7.00 | 6.00 to 7.00 | 7.00 to 8.00 and 6.00 to 7.00
7 | C=CC(=O)N1CC[C@H](C(=O)N(C)[C@H](C(=O)N[C@H]2Cc3cccc(c3)-c3ccc4c(c3)c(c(-c3cccnc3[C@H](C)OC)n4CC)CC(C)(C)COC(=O)[C@@H]3CCCN(N3)C2=O)C(C)C)[C@H]1C (atropisomer, axis not shown) [Example A373] | 5.00 to 6.00 | 5.00 to 6.00 | 6.00 to 7.00 | 6.00 to 7.00 | 5.00 to 6.00 | 5.00 to 6.00 | 6.00 to 7.00
8 | CCn1c(-c2cccnc2[C@H](C)OC)c2c3cc(ccc31)-c1csc(n1)C[C@H](NC(=O)[C@H](C(C)C)N(C)C(=O)N1CC(N(C)C(=O)/C=C/CN(C)C)C1)C(=O)N1CCC[C@H](N1)C(=O)OCC(C)(C)C2 (atropisomer, axis not shown) [Example A710] | 6.00 to 7.00 | 6.00 to 7.00 | 6.00 to 7.00 | 7.00 to 8.00 | 6.00 to 7.00 | 6.00 to 7.00 | 7.00 to 8.00
9 | C=C(OC)C(=O)N1CC(N(C)C(=O)N(C)[C@H](C(=O)N[C@H]2Cc3nc(cs3)-c3ccc4c(c3)c(c(-c3cccnc3[C@H](C)OC)n4CC)CC(C)(C)COC(=O)[C@@H]3CCCN(N3)C2=O)C(C)C)C1 (atropisomer, axis not shown) [Example A713] | 6.00 to 7.00 | 6.00 to 7.00 | 5.00 to 6.00 | 6.00 to 7.00 | 5.00 to 6.00 | 6.00 to 7.00 | 6.00 to 7.00
10 | C=CC(=O)N1CC[C@H](C(=O)N(C)[C@H](C(=O)N[C@H]2Cc3cc(O)cc(c3)-c3ccc4c(c3)c(c(-c3cccnc3[C@@H](OC)C3CC3)n4CC)CC(C)(C)COC(=O)[C@@H]3CCCN(N3)C2=O)C(C)C)C1 (atropisomer, axis not shown) [Example A207] | 6.00 to 7.00 | 6.00 to 7.00 | 6.00 to 7.00 | 7.00 to 8.00 | 6.00 to 7.00 | 6.00 to 7.00 | 7.00 to 8.00
11 | C=CS(=O)(=O)N1CCC(C(=O)N(C)[C@H](C(=O)N[C@H]2Cc3cccc(c3)-c3ccc4c(c3)c(c(-c3cncnc3)n4CC)CC(C)(C)COC(=O)[C@@H]3CCCN(N3)C2=O)C(C)C)C1 (single isomer, unassigned) [Example A171] | < 5.00 | < 5.00 | 5.00 to 6.00 | 5.00 to 6.00 | < 5.00 | < 5.00 | 5.00 to 6.00
12 | CC#CC(=O)N1CC2(CCN2C(=O)N(C)[C@H](C(=O)N[C@H]2Cc3nc(cs3)-c3ccc4c(c3)c(c(-c3cccnc3[C@H](C)OC)n4CC)CC(C)(C)COC(=O)[C@@H]3CCCN(N3)C2=O)C(C)C)C1 (atropisomer, axis not shown) [Example A655] | 7.00 to 8.00 | 6.00 to 7.00 | 6.00 to 7.00 | 6.00 to 7.00 | 6.00 to 7.00 | 6.00 to 7.00 | 6.00 to 7.00
13 | C=CC(=O)N1CC[C@H](C(=O)N(C)[C@H](C(=O)N[C@H]2Cc3cccc(c3)-c3ccc4c(c3)c(c(-c3cccnc3[C@H](C)OC)n4CC3COC3)CC(C)(C)COC(=O)[C@@H]3CCCN(N3)C2=O)C(C)C)C1 (atropisomer, axis not shown) [Example A481] | 5.00 to 6.00 | 5.00 to 6.00 | 5.00 to 6.00 | 6.00 to 7.00 | < 5.00 | 5.00 to 6.00 | 6.00 to 7.00
14 | C=CC(=O)N1CCC[C@H]2CN(C(=O)N(C)[C@H](C(=O)N[C@H]3Cc4nc(cs4)-c4ccc5c(c4)c(c(-c4cccnc4[C@H](C)OC)n5CC)CC(C)(C)COC(=O)[C@@H]4CCCN(N4)C3=O)C(C)C)C[C@H]21 (atropisomer, axis not shown) [Example A618] | 6.00 to 7.00 | 6.00 to 7.00 | 6.00 to 7.00 | 6.00 to 7.00 | 5.00 to 6.00 | 6.00 to 7.00 | 6.00 to 7.00
15 | CCn1c(-c2cccnc2[C@H](C)OC)c2c3cc(ccc31)-c1nc(nn1C)C[C@H](NC(=O)[C@@H](COC1CN(C(=O)C#CC(C)(C)N(C)C)C1)C(C)C)C(=O)N1CCC[C@H](N1)C(=O)OCC(C)(C)C2 (atropisomer, axis not shown) [Example A720, (2R)-2-(((1-(4-(dimethylamino)-4-methylpent-2-ynoyl)azetidin-3-yl)oxy)methyl)-N-((6^3S,4S,Z)-1^1-ethyl-1^2-(2-((S)-1-methoxyethyl)pyridin-3-yl)-2^1,10,10-trimethyl-5,7-dioxo-6^1,6^2,6^3,6^4,6^5,6^6-hexahydro-1^1H,2^1H-8-oxa-1(5,3)-indola-6(1,3)-pyridazina-2(5,3)-triazolacycloundecaphane-4-yl)-3-methylbutanamide] | 5.00 to 6.00 | 5.00 to 6.00 | 5.00 to 6.00 | 7.00 to 8.00 | 5.00 to 6.00 | 5.00 to 6.00 | 7.00 to 8.00
